Legend:
[1] = target: CDK11 (Homo sapiens (Human), UniProt Q9BWU1); experiment: KINOMEscan competitive binding assay; conditions: 10 uM
Protocol: (§1) For the competitive binding assay, test compounds were screened at 10 μM against 70 diverse kinase targets for competitive binding using the KINOMEscan™ technology (Ambit Biosciences) (Karaman, et al. (2008) Nature biotechnology 26:127-132). 11-point Kd curves were determined for hits identified during the initial screen.

[2] = target: PRKCE (Homo sapiens (Human), UniProt Q02156); experiment: KINOMEscan competitive binding assay; conditions: 10 uM
[3] = target: SRC (Homo sapiens (Human), UniProt P12931); experiment: KINOMEscan competitive binding assay; conditions: 10 uM
[4] = target: p38-alpha (Homo sapiens (Human), UniProt Q16539); experiment: KINOMEscan competitive binding assay; conditions: 10 uM
Protocol: as §1

[5] = test system: A549 cells; experiment: Cell proliferation assay (BrdU ELISA) in A549 cells; assay type: cell-based; conditions: A549, low serum DMEM (0.5% FBS), 72 h
Protocol: A549 cells, which endogenously express oncogenic K-RAS, were plated at 2500 cells/well of a 96-well plate in low serum DMEM (0.5% fetal bovine serum) overnight. The next morning, compounds were serially diluted in DMSO and resuspended in fresh DMEM+0.5% medium, which was added to the cells for 72 h. At this time point the cells were fixed and proliferation was quantified using an ELISA for bromodeoxyuriding incorporation (BrdU ELISA, Millipore, Inc.). BrdU incorporation occurs during S phase and is the classical method for determining cell proliferation rates. In FIG. 14B-C, BrdU incorporation is expressed as a percentage of the BrdU incorporation occurring in cells treated with 0.1% DMSO as control. A dotted line represents the growth rate of cells treated with DMSO alone. […] (FIG. 13C)

[6] = target: CDK8 (Homo sapiens (Human), UniProt P49336); experiment: KINOMEscan competitive binding assay; conditions: 10 uM
[7] = target: PFTK1 (Homo sapiens (Human), UniProt O94921); experiment: KINOMEscan competitive binding assay; conditions: 10 uM
[8] = Pharmacokinetic analysis in mice; assay type: in vivo
[9] = target: DYRK1B (Homo sapiens (Human), UniProt Q9Y463); experiment: KINOMEscan competitive binding assay; conditions: 10 uM
[10] = test system: B-RAF (V600E); experiment: ERK phosphorylation in 1205Lu melanoma cells expressing B-RAF V600E; assay type: cell-based, human; conditions: 10 μM, 1 h
[11] = target: SRPK2 (Homo sapiens (Human), UniProt P78362); experiment: KINOMEscan competitive binding assay; conditions: 10 uM
[12] = target: RAF1 (Homo sapiens (Human), UniProt P04049); experiment: KINOMEscan competitive binding assay; conditions: 10 uM
[13] = test system: XPA-1-RFP pancreatic tumor xenografts; experiment: Orthotopic pancreatic carcinoma model; assay type: in vivo, mice; conditions: 50 mg/kg
Protocol: Drug treatments were started 3 days after surgical orthotopic implantation (SOI) of XPA1-RFP tumors and tumor progression was monitored every 3 days by whole animal imaging. Scale bar=10 mm. […] Tumor surface area was calculated by adding the total pixels of both the ventral and lateral images of the tumor. *p=0.034. (FIG. 5C) Average body weight of the mice measured each day of whole animal imaging described in FIGS. 5A and 5B above. (FIG. 5D) Total weights of resected primary tumors on day 15 post (SOI), *p=0.022. (FIG. 5E) Representative fluorescent images of endothelial GFP expression (GFP expression driven by the Nestin promoter) within the XPA1-RFP tumors after resection. Images taken 15 days post SOI. Scale bar=200 μm. (FIG. 5F) Plot of tumor vessel density from images acquired as in FIG. 5E. Blood vessels imaged as in 5E were converted to length (mm) and normalized to the tumor volume (mm^3), *p=0.01.
Orthotopic human pancreatic cancer xenografts from the pancreatic cancer cell line XPA1-RFP were established in nude mice by surgical orthotopic implantation (SOI). Briefly, subcutaneous XPA1-RFP tumors in the exponential growth phase were harvested and sectioned into 1 mm^3 pieces in serum-free RPMI medium. Mice were anesthetized using 50% ketamine, 38% xylazine and 12% agepromazine maleate injected intramuscularly at a dose of 2 μl/g, and their abdominal wall was sterilized with alcohol. A small incision was then made in the right pararectal line through the skin and peritoneum. The body of the pancreas was exposed and a 1 mm^3 tumor fragment was sutured to the pancreas using a single 8-0 nylon surgical suture (Davis-Geck, Inc. Manati, Puerto Rico). The pancreas was then returned to the abdomen and the peritoneum and skin were closed in two layers using 6-0 vicryl surgical suture.
At day 3 after SOL the animals began treatment with twice-daily IP injections of either compound, 6 (50 mg/kg dose in 200 μl total volume), or vehicle control at 12 hour intervals. […] At day 12 post-SOI the animals were sacrificed and their tumors were excised, weighed, and measured in 3 dimensions in order to calculate tumor volume. The tumor volume was calculated with the formula: volume=height×width×length×0.52. […] The total vessel length for each tumor was measured using Image-J software and converted to vessel density by dividing total tumor vessel length by tumor volume. […]
RFP expressing XPA-1 pancreatic tumor xenografts were implanted into the pancreas of Nestin GFP-mice enabling detection of both developing blood vessels (GFP) and primary tumor (RFP). […] Tumor growth was monitored non-invasively by whole body imaging using the Olympus OV100 Small Animal Imaging System to detect the RFP signal from the tumor implant within the pancreas.

[14] = test system: tumor lines; experiment: Tumor cell viability, summary over tumor lines; assay type: cell-based; conditions: summary of Table 5
[15] = target: MYO3A (Homo sapiens (Human), UniProt Q8NEV4); experiment: KINOMEscan competitive binding assay; conditions: 10 uM
Chain of MYO3A (Q8NEV4 whole entry): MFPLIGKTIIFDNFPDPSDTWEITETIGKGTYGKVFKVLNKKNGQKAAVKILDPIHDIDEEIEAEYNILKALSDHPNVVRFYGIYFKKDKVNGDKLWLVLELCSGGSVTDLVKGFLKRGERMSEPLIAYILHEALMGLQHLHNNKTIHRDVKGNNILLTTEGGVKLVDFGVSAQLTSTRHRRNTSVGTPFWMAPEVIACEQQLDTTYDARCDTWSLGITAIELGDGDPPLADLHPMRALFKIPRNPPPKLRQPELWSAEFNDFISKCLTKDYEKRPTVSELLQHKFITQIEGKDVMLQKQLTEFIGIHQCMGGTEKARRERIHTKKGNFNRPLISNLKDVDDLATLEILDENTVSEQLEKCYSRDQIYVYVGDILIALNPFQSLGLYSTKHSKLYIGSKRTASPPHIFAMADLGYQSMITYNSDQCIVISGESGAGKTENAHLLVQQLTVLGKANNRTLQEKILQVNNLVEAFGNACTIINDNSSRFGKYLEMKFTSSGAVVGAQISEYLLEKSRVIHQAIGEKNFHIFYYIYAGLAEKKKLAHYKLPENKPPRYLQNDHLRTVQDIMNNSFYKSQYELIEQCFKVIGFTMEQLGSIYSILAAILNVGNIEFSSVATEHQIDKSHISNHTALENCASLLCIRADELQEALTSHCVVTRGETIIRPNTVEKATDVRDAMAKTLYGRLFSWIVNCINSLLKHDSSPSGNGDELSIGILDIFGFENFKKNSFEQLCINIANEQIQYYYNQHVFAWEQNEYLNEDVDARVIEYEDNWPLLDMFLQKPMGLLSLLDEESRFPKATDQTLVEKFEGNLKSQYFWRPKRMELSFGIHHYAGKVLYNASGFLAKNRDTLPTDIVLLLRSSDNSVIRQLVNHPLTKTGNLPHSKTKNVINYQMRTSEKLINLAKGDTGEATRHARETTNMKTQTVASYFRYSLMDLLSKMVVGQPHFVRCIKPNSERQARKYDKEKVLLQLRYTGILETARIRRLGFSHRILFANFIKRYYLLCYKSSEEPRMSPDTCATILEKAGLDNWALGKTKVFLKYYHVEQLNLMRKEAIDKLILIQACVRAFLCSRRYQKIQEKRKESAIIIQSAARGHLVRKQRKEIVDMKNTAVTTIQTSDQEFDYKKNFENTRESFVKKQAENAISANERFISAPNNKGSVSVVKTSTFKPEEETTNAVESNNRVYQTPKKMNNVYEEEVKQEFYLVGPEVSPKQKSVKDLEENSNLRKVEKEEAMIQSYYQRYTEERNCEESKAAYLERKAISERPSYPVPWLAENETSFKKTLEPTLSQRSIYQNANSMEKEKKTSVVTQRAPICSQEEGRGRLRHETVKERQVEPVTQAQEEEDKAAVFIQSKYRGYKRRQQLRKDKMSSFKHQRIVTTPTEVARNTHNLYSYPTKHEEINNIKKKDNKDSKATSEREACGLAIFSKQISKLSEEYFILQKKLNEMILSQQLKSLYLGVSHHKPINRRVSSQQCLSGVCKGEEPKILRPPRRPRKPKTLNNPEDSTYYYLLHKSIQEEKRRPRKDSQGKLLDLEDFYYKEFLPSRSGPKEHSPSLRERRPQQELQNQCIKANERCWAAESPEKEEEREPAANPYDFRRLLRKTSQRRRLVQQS

Chain of PFTK1 (O94921 whole entry): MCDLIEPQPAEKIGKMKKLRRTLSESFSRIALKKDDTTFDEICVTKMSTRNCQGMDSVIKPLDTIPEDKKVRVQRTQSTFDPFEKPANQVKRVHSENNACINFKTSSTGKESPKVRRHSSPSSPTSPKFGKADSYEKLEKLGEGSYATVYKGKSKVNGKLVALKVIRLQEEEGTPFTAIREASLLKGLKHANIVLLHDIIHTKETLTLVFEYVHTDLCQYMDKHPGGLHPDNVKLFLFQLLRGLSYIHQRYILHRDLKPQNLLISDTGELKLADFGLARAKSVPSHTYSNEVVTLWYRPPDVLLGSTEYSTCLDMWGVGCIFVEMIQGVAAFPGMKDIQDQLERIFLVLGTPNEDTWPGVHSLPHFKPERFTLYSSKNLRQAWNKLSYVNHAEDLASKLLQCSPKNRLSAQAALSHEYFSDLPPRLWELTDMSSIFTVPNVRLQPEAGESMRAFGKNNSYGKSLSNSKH
Chain of DYRK1B (Q9Y463 whole entry): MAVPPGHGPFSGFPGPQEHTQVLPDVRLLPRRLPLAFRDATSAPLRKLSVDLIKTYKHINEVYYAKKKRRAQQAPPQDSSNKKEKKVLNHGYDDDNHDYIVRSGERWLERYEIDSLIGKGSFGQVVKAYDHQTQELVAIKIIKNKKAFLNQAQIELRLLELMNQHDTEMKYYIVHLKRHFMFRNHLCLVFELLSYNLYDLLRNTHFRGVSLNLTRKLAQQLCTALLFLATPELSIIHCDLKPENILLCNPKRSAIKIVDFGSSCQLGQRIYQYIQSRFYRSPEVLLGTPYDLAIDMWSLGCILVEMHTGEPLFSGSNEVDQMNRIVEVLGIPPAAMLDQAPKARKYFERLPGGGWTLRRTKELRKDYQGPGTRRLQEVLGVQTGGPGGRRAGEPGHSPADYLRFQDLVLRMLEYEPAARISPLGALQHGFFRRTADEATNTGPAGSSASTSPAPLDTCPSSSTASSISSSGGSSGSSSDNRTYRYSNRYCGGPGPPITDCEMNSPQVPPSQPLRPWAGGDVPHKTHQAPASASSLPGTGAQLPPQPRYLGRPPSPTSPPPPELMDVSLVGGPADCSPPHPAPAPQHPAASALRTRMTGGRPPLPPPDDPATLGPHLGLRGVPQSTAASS
Chain of RAF1 (P04049 349-609): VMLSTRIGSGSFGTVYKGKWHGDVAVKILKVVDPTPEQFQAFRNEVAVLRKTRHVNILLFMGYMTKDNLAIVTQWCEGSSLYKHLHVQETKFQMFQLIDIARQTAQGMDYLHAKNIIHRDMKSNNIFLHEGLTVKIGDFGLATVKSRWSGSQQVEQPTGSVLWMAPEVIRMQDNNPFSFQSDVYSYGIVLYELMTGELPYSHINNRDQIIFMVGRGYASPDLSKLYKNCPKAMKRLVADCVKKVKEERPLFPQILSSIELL
Chain of p38-alpha (Q16539 whole entry): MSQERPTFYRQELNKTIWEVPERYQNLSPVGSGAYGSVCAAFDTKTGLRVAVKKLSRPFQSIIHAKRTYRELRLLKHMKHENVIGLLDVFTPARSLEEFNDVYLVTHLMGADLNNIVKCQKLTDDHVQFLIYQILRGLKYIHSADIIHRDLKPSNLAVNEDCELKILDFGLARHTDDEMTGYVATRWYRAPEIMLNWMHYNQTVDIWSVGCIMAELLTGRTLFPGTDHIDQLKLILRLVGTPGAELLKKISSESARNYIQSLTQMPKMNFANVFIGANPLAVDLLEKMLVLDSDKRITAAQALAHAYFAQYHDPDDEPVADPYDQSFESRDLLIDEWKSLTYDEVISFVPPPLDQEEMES
Chain of PRKCE (Q02156 whole entry): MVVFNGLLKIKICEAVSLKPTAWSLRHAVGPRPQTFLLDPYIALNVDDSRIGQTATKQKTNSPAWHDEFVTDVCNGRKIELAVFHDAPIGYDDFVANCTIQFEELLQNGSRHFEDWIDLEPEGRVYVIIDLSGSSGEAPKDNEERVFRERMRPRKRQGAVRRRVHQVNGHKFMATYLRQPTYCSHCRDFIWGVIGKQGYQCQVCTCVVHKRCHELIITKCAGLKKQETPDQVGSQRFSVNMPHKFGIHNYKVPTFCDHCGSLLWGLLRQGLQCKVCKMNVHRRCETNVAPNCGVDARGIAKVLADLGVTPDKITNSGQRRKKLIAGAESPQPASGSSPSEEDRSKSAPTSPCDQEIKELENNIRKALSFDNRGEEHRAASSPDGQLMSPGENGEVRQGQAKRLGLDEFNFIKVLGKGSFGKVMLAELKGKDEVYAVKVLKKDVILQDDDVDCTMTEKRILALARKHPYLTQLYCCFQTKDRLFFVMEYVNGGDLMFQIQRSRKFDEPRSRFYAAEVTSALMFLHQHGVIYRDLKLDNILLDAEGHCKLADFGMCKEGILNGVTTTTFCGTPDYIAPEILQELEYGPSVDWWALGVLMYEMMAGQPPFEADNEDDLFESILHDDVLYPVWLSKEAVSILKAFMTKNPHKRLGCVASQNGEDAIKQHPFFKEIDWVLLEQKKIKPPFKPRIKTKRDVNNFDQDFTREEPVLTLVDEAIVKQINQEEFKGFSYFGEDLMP
Chain of CDK8 (P49336 whole entry): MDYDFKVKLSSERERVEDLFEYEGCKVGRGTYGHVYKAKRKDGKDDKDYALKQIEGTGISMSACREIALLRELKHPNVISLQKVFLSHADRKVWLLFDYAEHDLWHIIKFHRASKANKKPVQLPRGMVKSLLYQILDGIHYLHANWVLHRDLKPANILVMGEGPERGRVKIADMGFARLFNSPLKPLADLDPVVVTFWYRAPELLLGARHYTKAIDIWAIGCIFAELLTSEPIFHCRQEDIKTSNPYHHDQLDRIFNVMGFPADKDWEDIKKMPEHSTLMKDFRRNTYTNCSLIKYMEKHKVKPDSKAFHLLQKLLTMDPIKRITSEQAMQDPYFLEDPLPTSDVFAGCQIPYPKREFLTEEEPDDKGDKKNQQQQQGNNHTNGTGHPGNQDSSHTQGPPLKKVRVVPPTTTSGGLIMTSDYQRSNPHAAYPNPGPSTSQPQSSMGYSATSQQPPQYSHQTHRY
Chain of CDK11 (Q9BWU1 whole entry): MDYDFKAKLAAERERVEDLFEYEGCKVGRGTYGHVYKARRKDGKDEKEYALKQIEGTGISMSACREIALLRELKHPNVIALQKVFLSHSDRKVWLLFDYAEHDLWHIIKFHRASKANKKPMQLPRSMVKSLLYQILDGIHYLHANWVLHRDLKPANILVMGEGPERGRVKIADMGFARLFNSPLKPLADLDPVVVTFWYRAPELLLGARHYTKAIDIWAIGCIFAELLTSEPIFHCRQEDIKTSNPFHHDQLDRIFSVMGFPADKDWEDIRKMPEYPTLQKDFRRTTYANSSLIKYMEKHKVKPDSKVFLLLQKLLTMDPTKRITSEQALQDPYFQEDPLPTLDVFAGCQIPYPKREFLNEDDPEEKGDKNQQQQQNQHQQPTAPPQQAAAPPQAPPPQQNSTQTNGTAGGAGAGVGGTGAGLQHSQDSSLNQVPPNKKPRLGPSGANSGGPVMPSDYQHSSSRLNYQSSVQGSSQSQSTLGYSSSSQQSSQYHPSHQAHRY

SMILES: CSc1nc(N)cc(Oc2ccc(-c3nnc(Nc4cccc(C(F)(F)F)c4)[nH]3)cc2)n1 [Compound 6]
- % Control [1]: 32%
- % Control [2]: 91%
- % Control [3]: 90%
- % Control [4]: 100%
- cell proliferation (BrdU incorporation) versus DMSO control [5]: inhibitor cell proliferation
- % Control [6]: 67%
- % Control [7]: 71%
- AUC0-12h ([8]; 50 mg/kg, ip, bid): 14700 ng·h/mL
- T1/2 ([8]; 50 mg/kg, ip, bid): 11.5 h
- AUC0-24h ([8]; 100 mg/kg, oral): 8700 ng·h/mL
- Cmax (printed C.) ([8]; 100 mg/kg, oral): 4900 ng/mL
- T1/2 ([8]; 100 mg/kg, oral): 6.1 h
- % Control [9]: 85%
- phosphorylation of ERK T202/Y204 in cells expressing constitutively active B-RAF (V600E) [10]: completely disrupted
- % Control [11]: 100%
- % Control [12]: 52%
- body weight ([13]; bid): no weight loss
- mean vessel length/tumor volume ([13]; bid (vehicle 2.5)): 0.2 mm/mm^3
- tumor growth ([13]; bid, from day 3, 12 days post SOI): completely suppressed
- average tumor weight ([13]; resected on day 15, bid (vehicle 74.1 mg)): 26.7 mg
- times more potent than sorafenib [14]: 15-100 times
- EC50 ([14]; read-out: EC50 in wide range of tumor lines): 100 to 600 nM
- % Control [15]: 94%

Reference: US9260417B2, “Therapeutic methods and compositions involving allosteric kinase inhibition” (AMITECH THERAPEUTIC SOLUTIONS, INC., priority 2010, dated 2016)
